Measured values: patent US20240382561A1, “GLUCOREGULATORY COMPOUND, COMPOSITION AND USES THEREOF” (THE HONG KONG POLYTECHNIC UNIVERSITY, priority 2021, published 2024)

What was measured:
3T3-L1 adipocytes = assay: 2-NBDG glucose uptake in 3T3-L1 adipocytes; type: cell-based; conditions: inhibitor 1 μM; for effect of co-treatment on CYSTM1-induced glucose uptake: 3T3-L1 cells, CYSTM1 1 μM
Protocol: (§1) To determine whether CYSTM1 can increase glucose uptake in adipocytes, in vitro assays of 2-NBDG uptake in response to CYSTM1 treatment and potential inhibitors in 3T3-L1 adipocytes and mouse primary adipocytes were performed. 3T3-L1 preadipocytes were maintained in Dulbecco's modified Eagle's medium (DMEM) supplemented with 10% fetal bovine serum. Two days after confluence, 3T3-L1 cells were induced to differentiation using the standard adipogenic cocktail (0.5 mM IBMX, 1 μM dexamethasone and 10 μg/ml insulin) that was applied for 4 days and followed by 10 μg/ml insulin treatment for additional 4 days. The culture medium was changed every other day. The differentiated cells were maintained in normal serum containing DMEM. Mouse primary adipocytes were isolated from 10 to 12-week-old male C57BL/6J mice using a collagenase digestion protocol as described, briefly, white fat pads were removed, minced and digested using collagenase for 60-90 min at 37° C. in Krebs-Ringers phosphate HEPES buffer (KRPH) (15 mM HEPES, pH 7.4, 118 mM NaCl, 4.8 mM KCl, 1.2 mM MgSO4, 1.3 mM CaCl2, 1.2 mM KHPO3, 0.1% BSA). The stromal vascular fraction was separated from the adipocytes and cultured using DMEM and differentiated the same as 3T3-L1 adipocytes as described above. For glucose uptake, differentiated 3T3-L1 adipocytes and primary adipocytes are plated at 10,000 cells/well in 96-well plates and fasted overnight with low glucose serum-free medium (DMEM with 0.25% BSA) DMEM and 2-NBDG (Cayman Chemical) was performed as follow: briefly, 3T3-L1 cells were washed twice with warm (37° C.) KRPH buffer, and adipocytes were either untreated or treated with different concentration of CYSTM1 (1 nM, 10 nM, 100 nM and 1000 nM) for 1 h in KRPH buffer containing 400 nM of 2-NBDG. NBDG uptake was measured using a fluorescent microplate reader (Thermo Scientific Varioskan LUX Multimode Microplate Reader).

mouse primary adipocytes = assay: 2-NBDG glucose uptake in mouse primary adipocytes; type: cell-based; conditions: inhibitor 1 μM; for effect of co-treatment on CYSTM1-induced glucose uptake: primary adipocytes, CYSTM1 1 μM
Protocol: as §1

[1] = system: MIN6 pancreatic beta cell; assay: Insulin secretion in MIN6 cells with GLP-1R antagonist exendin (9-39); type: cell-based, mouse; conditions: exendin (9-39) 10 nM

Question: With `Cc1cccc([C@@H](CO)NC(=O)[C@@H](C)N2Cc3ccc(-c4nc(NC5CCOCC5)ncc4Cl)cc3C2=O)c1` [ERK1/2 inhibitor 1] as the compound, how does the “effect of co-treatment on CYSTM1-induced glucose uptake” value (“effect of co-treatment” for short) (3T3-L1 adipocytes) read?
Answer: blocked

Question: What about the “effect of co-treatment” value (mouse primary adipocytes) of the same compound?
Answer: blocked

Question: `CCn1c(-c2nonc2N)nc2c(C#CC(C)(C)O)ncc(OC[C@H]3CCCNC3)c21` [GSK690693] was tested. Which “inhibition of CYSTM1-induced increase in glucose uptake” value (3T3-L1 adipocytes; 3T3-L1 adipocytes, 5 μM, 10 μM, CYSTM1 1 μM (FIG. 8B)) did it give?
Answer: inhibited by the dose-dependent manner

Question: And the “effect of co-treatment” value (3T3-L1 adipocytes)?
Answer: blocked

Question: And the “inhibition of CYSTM1-induced increase in glucose uptake” value (mouse primary adipocytes; mouse primary adipocytes, 5 μM, 10 μM, CYSTM1 1 μM (FIG. 8D))?
Answer: inhibited by the dose-dependent manner

Question: And the “effect of co-treatment” value (mouse primary adipocytes)?
Answer: blocked

Question: With exendin (9-39) as the compound, how does the “inhibition of CYSTM1 activity (insulin secretion) by the antagonist” value ([1]; CYSTM1 10 nM) read?
Answer: did not inhibit CYSTM1 activity

Question: What about the “inhibition of glucose-induced insulin secretion of GLP-1 by the antagonist” value ([1]; GLP-1 10 nM) of the same compound?
Answer: inhibited

Question: With glucagon-like peptide 1 [GLP-1] as the compound, how does the “glucose-induced insulin secretion of GLP-1 in presence of exendin (9-39)” value ([1]; GLP-1 10 nM) read?
Answer: inhibited by exendin (9-39)
